Here are results for four compounds from ChEMBL document CHEMBL1153643, “Design, synthesis and evaluation of aspirin analogues having an additional carboxylate substituent for antithrombotic activity” (Bioorg Med Chem Lett, 2009).

Assay type in all cases: cell-free
The target in test [1] is Prostaglandin G/H synthase 1 (Homo sapiens) (UniProt P23219). Nature of the test: Inhibition of PGHS-1 in human platelet rich plasma assessed as inhibition of arachidonic acid-induced platelet aggregation at 1000 um treated 5 min before arachidonic acid challenge by turbidimetry.
Prostaglandin G/H synthase 1 (Homo sapiens), sequence (P23219 whole entry): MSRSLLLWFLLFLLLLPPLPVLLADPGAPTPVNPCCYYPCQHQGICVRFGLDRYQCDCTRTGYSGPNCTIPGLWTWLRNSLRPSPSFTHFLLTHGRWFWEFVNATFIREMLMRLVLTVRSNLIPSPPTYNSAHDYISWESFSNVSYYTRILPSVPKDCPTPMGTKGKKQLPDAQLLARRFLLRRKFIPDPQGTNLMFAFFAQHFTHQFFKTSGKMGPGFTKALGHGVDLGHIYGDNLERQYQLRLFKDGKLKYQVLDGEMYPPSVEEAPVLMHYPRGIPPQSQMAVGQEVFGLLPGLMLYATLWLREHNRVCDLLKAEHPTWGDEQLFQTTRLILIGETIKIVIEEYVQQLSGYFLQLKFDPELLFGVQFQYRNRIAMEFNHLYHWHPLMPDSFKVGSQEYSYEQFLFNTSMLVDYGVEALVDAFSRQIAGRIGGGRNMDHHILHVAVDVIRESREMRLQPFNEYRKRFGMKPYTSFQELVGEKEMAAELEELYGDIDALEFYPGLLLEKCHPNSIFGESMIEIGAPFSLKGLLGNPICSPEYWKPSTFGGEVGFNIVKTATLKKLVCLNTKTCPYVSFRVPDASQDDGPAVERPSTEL
The target is the same in test [2]. Description: Ratio of compound IC50 to aspirin IC50 for PGHS-1 in human platelet rich plasma assessed as inhibition of arachidonic acid-induced platelet aggregation.
Test [3] has the same target. Description: Inhibition of PGHS-1 in human platelet rich plasma assessed as inhibition of U46619-induced platelet aggregation in human platelet rich plasma at 1000 um.

Calls of active or inactive are those of the source. The calls are words filed in the database; no cut-off is given here.

With `CC(=O)Oc1c(C(=O)O)cccc1C(=O)CCCC(=O)O`, the result in test [1] was inactive.
Still for that read-out and setting: with `CC(=O)Oc1c(CCCCC(=O)O)cccc1C(=O)O` the entry was “inactive”.
Same read-out and setting: with `CC(=O)Oc1c(CCCC(=O)O)cccc1C(=O)O` the entry was “inactive”.
Take `COC(=O)CCCCc1cccc(C(=O)OC)c1OC(C)=O`: the Ratio IC50 in test [2] is 15. Further, the outcome in test [3] was inactive.
